Results on one molecule are retold here after paper PMC5152921, “Evolutionary and Functional Diversification of the Vitamin D Receptor-Lithocholic Acid Partnership” (PLoS ONE, 2016).

The structures appear in SMILES notation.

Common to all, as to experiment: Transient transactivation assay (XREM-Luc, HepG2)
Common to all, as to assay type: cell-based
Common to all, as to conditions: 100 μM LCA

In one assay the target is T1, Lamprey VDR (Petromyzon marinus, UniProt Q7ZZY9).
T1 sequence (Q7ZZY9 1-406): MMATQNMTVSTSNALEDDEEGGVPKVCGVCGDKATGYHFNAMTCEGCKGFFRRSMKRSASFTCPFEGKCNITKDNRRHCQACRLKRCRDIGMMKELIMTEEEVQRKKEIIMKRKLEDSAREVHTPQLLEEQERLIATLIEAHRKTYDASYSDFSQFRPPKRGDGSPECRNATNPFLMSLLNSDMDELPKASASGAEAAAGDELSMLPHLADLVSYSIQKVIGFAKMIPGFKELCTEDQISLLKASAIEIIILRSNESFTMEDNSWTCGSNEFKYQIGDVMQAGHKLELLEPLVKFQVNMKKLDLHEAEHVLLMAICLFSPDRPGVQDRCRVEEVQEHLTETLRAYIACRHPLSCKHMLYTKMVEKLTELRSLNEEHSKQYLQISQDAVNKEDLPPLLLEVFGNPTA
T1 sequence (P19793 1-462 partner): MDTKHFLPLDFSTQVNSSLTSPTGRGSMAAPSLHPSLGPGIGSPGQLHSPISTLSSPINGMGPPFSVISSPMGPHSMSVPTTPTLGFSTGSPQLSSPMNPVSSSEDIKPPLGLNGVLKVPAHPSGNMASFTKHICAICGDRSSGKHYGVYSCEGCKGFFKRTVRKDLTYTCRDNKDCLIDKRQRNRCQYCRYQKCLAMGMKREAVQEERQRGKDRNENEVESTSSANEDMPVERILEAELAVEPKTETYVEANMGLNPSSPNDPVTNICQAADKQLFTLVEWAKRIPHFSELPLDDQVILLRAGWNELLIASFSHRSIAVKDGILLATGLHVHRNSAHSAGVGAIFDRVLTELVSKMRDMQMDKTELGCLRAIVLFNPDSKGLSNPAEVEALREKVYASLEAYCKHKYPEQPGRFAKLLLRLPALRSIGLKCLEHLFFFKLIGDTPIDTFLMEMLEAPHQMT
The procedure: (§1) HepG2 cells (American Type Culture Collection #HB-8065) were cultured in T75 flasks with vented caps (Corning Life Sciences, Corning, NY) using Minimum Essential Medium (MEM) with phenol red supplemented with 10% fetal bovine serum, 1 mM sodium pyruvate, and 1X MEM non-essential amino acids. Cells were maintained following standard protocols in a 5% CO2 incubator set at 37°C, and split when 80–90% confluent.
(§2) For the transient transactivation assays, HepG2 cells were seeded in 96-well tissue culture plates at a density of 2.5x10^4 cells per well in complete phenol red-free MEM, and allowed to recover overnight. Transfections were performed the following day using Lipofectamine 2000 (Life Technologies, Grand Island, NY) as described previously. For functional comparisons, 89.7 ng/well of full-length pSG5-VDR was co-transfected with 19.2 ng/well human XREM-Luc reporter and 4.5 ng/well of pRL-CMV as an internal luciferase control. Coregulator studies included the addition of 18.3 ng/well of human coregulators (pCDNA-RXRWT, pCDNA-RXRAF2, pSG5-SRC1, pSG5-GRIP1 or pSG5-ACTR) where indicated. […] Controls include 120 nM 1,25D3 as a positive control, and ethanol as a vehicle control. Twenty-four hours post-exposure cells were tested for luciferase activity using the Dual-Glo Luciferase Assay System (Promega Corporation, Madison, WI) according to the manufacturer’s protocols. Luciferase data were first normalized to the pRL-CMV internal luciferase control. […] To calculate the impact of coregulators on VDR transactivation, VDR response in the presence of coregulators was normalized to VDR alone. All experiments were repeated 3 times and conducted as groups of 4 replicate wells. VDR response in the absence of coregulators was analyzed using a 1-way ANOVA followed by Dunnett’s multiple comparisons test. To examine the effects of different coregulators on VDR activation, data were analyzed using a 2-way ANOVA followed by Bonferroni’s multiple comparisons test in GraphPad Prism (GraphPad Inc, San Diego, CA).

Another assay deals with T2, Bichir VDR (Polypterus senegalus, UniProt A0A088GJ14).
T2 sequence (A0A088GJ14 1-421): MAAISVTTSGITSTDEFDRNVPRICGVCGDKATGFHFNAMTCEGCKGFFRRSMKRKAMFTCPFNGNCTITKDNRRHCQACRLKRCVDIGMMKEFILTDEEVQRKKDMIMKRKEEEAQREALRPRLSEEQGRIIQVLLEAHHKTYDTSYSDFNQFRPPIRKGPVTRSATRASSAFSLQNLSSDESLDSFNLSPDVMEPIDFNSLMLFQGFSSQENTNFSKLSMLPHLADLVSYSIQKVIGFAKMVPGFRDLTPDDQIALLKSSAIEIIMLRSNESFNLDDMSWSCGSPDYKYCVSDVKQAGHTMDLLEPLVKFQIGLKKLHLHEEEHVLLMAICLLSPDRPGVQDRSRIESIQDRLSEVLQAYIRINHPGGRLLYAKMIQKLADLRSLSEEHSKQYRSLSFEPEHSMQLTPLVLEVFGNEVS
T2 sequence (P19793 1-462 partner): T1 sequence (P19793 1-462 partner)
The procedure: as §1, §2

The next assay concerns the target T3, Skate VDR (Leucoraja erinacea, UniProt A0A088GDQ7).
T3 sequence (A0A088GDQ7 1-434): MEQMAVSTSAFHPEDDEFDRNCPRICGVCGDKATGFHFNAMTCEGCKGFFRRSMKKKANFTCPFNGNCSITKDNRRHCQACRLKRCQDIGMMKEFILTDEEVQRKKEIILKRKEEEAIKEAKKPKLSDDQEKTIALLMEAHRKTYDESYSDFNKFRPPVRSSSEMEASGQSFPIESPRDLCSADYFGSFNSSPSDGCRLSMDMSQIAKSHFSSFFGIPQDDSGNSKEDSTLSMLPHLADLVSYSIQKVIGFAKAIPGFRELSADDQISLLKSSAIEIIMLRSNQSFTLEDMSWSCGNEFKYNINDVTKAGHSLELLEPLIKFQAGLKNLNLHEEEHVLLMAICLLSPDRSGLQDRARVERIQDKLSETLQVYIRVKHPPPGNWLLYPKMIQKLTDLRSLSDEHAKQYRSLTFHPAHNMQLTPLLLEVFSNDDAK
T3 sequence (P19793 1-462 partner): T1 sequence (P19793 1-462 partner)
The procedure: as §1, §2

Setting [1] is: any SRC/p160 co-activator, presence or absence of RXRWT.
Where [2] appears, read: co-transfected human RXRWT, vs VDR alone.

Take `C[C@H](CCC(=O)O)[C@H]1CC[C@H]2[C@@H]3CC[C@@H]4C[C@H](O)CC[C@]4(C)[C@H]3CC[C@]12C` [LCA, 5β-cholanic acid-3α-ol]: the “Effect of SRC/p160 co-activators on VDR transactivation” value at Lamprey VDR (setting [1]) and at Bichir VDR (setting [1]) was “No change in transactivation” throughout. Moreover, the “Effect of exogenous human RXRWT on VDR transactivation” value at Lamprey VDR (setting [2]) is given as “no effect”; at Bichir VDR (setting [2]), “no effect”; on Skate VDR (setting [2]), “significantly enhanced transactivation”. Moreover, the “Effect of RXRWT+SRC1 or RXRWT+GRIP1 on VDR transactivation” value on Skate VDR (not significantly different from RXRWT individually) is listed as “Enhanced VDR transactivation was also observed”.
